How the values were obtained:
MMP-14 = target: T1, MMP-14 (Homo sapiens, UniProt P50281); experiment: MMP activity assay, fluorogenic substrate (MMP Inhibitor Profiling Kit); format: biochemical
T1 construct: the BML- prefix points to Enzo Life Sciences, own knowledge BML-AK308
Method: (§1) Determination of MMP activity. A fluorescently labeled substrate probe containing a fluorescent label and a fluorescence quencher, was utilized for this study. […] Enzyme activity was assessed using the MMP Inhibitor Profiling Kit (Product # BML-AK308, New York, NY, USA) according to the manufacturer’s recommendations. The nonspecific inhibitor NNGH was used as a positive control. The fluorescence of the fluorogenic substrate OmniMMP^TM RED was measured at wavelengths Ex/Em = 545/576 nm using a Spark 10M multimode plate reader (Tecan, Zurich, Switzerland). Reaction rates were expressed in relative fluorescence units (RFUs) per minute. The activity of MMPs in the presence of the studied compounds was determined as follows:Activity, % = (Vinh/Vcont) × 100,(1) where V is the initial reaction rate (RFUs/min) in the presence (Vinh) and absence (Vcont) of the studied compounds.
(§2) All tested compounds were dissolved in DMSO. The final concentration of DMSO in all samples was 0.1%. Control samples were treated with 0.1% DMSO.

MMP-2 = target: T2, MMP-2 (Homo sapiens, UniProt P08253); experiment: as above; format: biochemical
T2 construct: the BML- prefix points to Enzo Life Sciences, own knowledge BML-AK308
Method: as §1, §2

MMP-3 = target: T3, MMP-3 (Homo sapiens, UniProt P08254); experiment: as above; format: biochemical
T3 construct: the BML- prefix points to Enzo Life Sciences, own knowledge BML-AK308
Method: as §1, §2

MMP-9 = target: T4, MMP-9 (Homo sapiens, UniProt P14780); experiment: as above; format: biochemical
T4 construct: the BML- prefix points to Enzo Life Sciences, own knowledge BML-AK308
Method: as §1, §2

U-251 MG = experiment: Cytotoxicity, MTT test; format: cell-based; settings: Homo sapiens, 72 h of exposure
Method: (§3) Cell culture. A-172 (human glioblastoma cells), HepG2 (human hepatocellular carcinoma cells), M-HeLa (human cervical adenocarcinoma cells, M subclone), Vero (African green monkey kidney epithelial cells), and FetMSC (human embryonic mesenchymal stem cells) were purchased from the Russian Collection of Cell Cultures of Vertebrates (Institute of Cytology RAS, St. Petersburg, Russia). The U-251 MG cell line (human glioblastoma-astrocytoma) was purchased from the European Collection of Authenticated Cell Cultures (Salisbury, UK). All cells were grown at 37 °C in an atmosphere of 5% CO2. A-172 and Vero cells were cultured in DMEM medium (PanEco, Moscow, Russia). HepG2, HeLa, and U-251 MG cells were cultured in EMEM medium (PanEco). FetMSC cells were cultured in F12/DMEM medium (PanEco). All incubation media were supplemented with 10% fetal calf serum (BioWest, Nuaillé, France), 50 U/mL penicillin, and […] streptomycin (PanEco). Additionally, media for HeLa, HepG2, and U-251 MG cells were supplemented with 2 mM glutamine (PanEco) and 1% essential amino acids (PanEco), media for A-172 and Vero cells were supplemented with 4 mM glutamine, and the medium for FetMSC cells was supplemented with 3 mM glutamine. The medium for U-251 MG cells was additionally supplemented with 1 mM sodium pyruvate (PanEco).
(§4) Cytotoxicity studies. The cytotoxicity of the compounds was assessed using the MTT test. Cells were seeded into 96-well plates at varying concentrations of 5 × 10^4 cells/mL (A-172, Vero and HeLa), 7 × 10^4 cells/mL (HepG2 and U-251 MG), and 10 × 10^4 cells/mL (FetMSC). The studied compounds were added to the incubation medium 24 h after seeding at concentrations ranging from 7.8 μM to 500 μM. All compounds were dissolved in DMSO and diluted with the incubation medium to their final concentrations just before use. The incubation medium in wells was aspirated and replaced with medium containing the studied compounds. The final concentration of DMSO in all samples was 0.1%. Control samples were treated with 0.1% DMSO. After 72 h of exposure, 3-(4,5-dimethylthiazol-2-yl)-2,5-diphenyl-2H-tetrazolium bromide (MTT) (Dia-M, Moscow, Russia) was added to the incubation medium at a concentration of 0.5 mg/mL. The resulting MTT-formazan crystals were dissolved in DMSO. The optical density was measured at 570 nm with a background wavelength of 620 nm using a Spark 10M plate reader. IC50 values were determined using a median effect analysis from the dose–effect relationships.

Vero = experiment: Cytotoxicity, MTT test; format: cell-based, African green monkey; settings: Chlorocebus sabaeus, Vero, 72 h of exposure
Method: as §3, §4

[1] = Cytotoxicity, MTT test, statements on all cell lines studied; format: cell-based; settings: human, African green monkey, 72 h of exposure, summary over cell lines, read-out: cytotoxicity IC50, cells in general
Method: as §3, §4

B16 melanoma = experiment: Antimetastatic activity in vivo, lung metastases; design: species or system mouse
Method: Antitumor activity in vivo. The B16 mouse melanoma was used as a tumor model. The B16 melanoma tumor strain was induced in male BDF1 mice by subcutaneous inoculation of 0.2–0.5 mL of a suspension of tumor tissue in medium 199 at intervals of 12–16 days. For the experiments, BDF1 mice were inoculated with 0.3 mL of a suspension of tumor tissue diluted in a 0.9% NaCl solution at a ratio of 1:5 subcutaneously on the right side.
Compound 4 was dissolved in a 0.9% NaCl solution with 1% DMSO. […] Control animals were injected intraperitoneally with 1% DMSO in saline (0.9% NaCl) in the same volumes as the test compounds.
And MNMcont. are the mean number of metastases in the experimental and control groups, respectively.

[2] = concentration of 1 μM (Figure 3)
[3] = lungs, B16 melanoma, BDF1 mice, doses as in Table 5

T3 sequence (P08254 100-272 limits assumed): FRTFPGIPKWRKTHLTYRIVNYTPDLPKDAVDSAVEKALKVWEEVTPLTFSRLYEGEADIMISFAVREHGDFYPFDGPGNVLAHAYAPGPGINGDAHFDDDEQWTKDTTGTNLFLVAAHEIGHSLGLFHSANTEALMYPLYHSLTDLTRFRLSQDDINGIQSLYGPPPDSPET
T4 sequence (P14780 107-444 limits assumed): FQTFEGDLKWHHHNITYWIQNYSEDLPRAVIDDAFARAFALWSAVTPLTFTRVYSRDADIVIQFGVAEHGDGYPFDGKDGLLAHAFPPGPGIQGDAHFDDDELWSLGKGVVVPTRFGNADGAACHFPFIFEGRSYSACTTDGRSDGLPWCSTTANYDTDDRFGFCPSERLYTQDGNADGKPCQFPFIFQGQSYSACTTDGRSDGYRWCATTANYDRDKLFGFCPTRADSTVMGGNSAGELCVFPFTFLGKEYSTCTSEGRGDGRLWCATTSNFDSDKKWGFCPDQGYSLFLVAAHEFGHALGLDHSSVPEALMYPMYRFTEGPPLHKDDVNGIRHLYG
T2 sequence (P08253 110-446 limits assumed): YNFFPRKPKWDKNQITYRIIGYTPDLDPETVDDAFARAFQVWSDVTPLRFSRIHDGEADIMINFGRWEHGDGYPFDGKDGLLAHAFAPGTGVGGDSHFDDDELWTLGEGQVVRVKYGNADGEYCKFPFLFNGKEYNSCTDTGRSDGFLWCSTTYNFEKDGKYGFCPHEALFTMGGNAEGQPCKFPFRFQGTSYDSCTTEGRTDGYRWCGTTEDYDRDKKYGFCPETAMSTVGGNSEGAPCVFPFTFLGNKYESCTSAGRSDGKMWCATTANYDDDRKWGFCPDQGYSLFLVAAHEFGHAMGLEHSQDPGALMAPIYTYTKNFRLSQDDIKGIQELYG

With O=C(CCC(=O)Nc1ccc(I)cc1)NO [Compound 4, N^1-hydroxy-N^4-(4-iodophenyl)butanediamide] the inhibition at 1 µM (MMP-14; [2]) was roughly 50%, the IC50 (MMP-14; read-out: MMP-inhibiting activity IC50, MMP-14) was 1490 ± 10 nM and the inhibition at 1 µM (MMP-2; [2]) was roughly 50%. For the same compound, the IC50 (MMP-2; read-out: MMP-inhibiting activity IC50, MMP-2) was 1260 ± 10 nM, the “effect on MMP-3 activity” value (MMP-3; [2]) was “no effect” and the “concentration with significant effect on MMP-3 activity” value (MMP-3; dose–effect relationship (Figure 4)) was “approximately 10 μM”. It also gave an IC50 (MMP-3; read-out: MMP-inhibiting activity IC50, MMP-3) greater than 10 µM, an inhibition at 1 µM (MMP-9; [2]) of roughly 50% and an IC50 (MMP-9; read-out: MMP-inhibiting activity IC50, MMP-9) of 1060 ± 10 nM. The IC50 (U-251 MG) was 401 ± 21.1 µM, the IC50 (Vero) was greater than 500 µM and the IC50 at 72 h [1] was greater than 100 µM. For the same compound, the “reduction of the number of animals with metastases in the group” value (B16 melanoma; 300 mg/kg i.p. days 2–9) was 50%, the “% Inhibition of Metastases” value (B16 melanoma; [3]) was 88.6% and the “Mean Number of Metastases per Mouse” value (B16 melanoma; [3]) was 1.3 ± 0.9. The “Metastasis Rate, %” value (B16 melanoma; [3]) was 50% and the “Number of Animals without Metastases” value (B16 melanoma; of 6 animals in the group, lungs, B16 melanoma, BDF1 mice, doses as in Table 5) was 3.
